{"source": "the NIST ThermoML archive (doi:10.1016/j.fluid.2016.02.009)", "conditions": "Liquid, Vibrating tube method", "note": "Numbers after ± are expanded uncertainties.", "data": [{"compound": "CC(C)CCOCCC(C)C", "note": "[di-(3-methylbutyl) ether]", "values": [{"measurement": "mass density", "setting": "308.15 K, 35000 kPa", "value": "790.52 ± 0.52", "unit": "kg/m3"}, {"measurement": "mass density", "setting": "308.15 K, 40000 kPa", "value": "793.86 ± 0.55", "unit": "kg/m3"}, {"measurement": "mass density", "setting": "308.15 K, 45000 kPa", "value": "797.07 ± 0.59", "unit": "kg/m3"}, {"measurement": "mass density", "setting": "308.15 K, 50000 kPa", "value": "800.19 ± 0.62", "unit": "kg/m3"}, {"measurement": "mass density", "setting": "308.15 K, 55000 kPa", "value": "803.2 ± 0.65", "unit": "kg/m3"}, {"measurement": "mass density", "setting": "308.15 K, 60000 kPa", "value": "806.11 ± 0.69", "unit": "kg/m3"}, {"measurement": "mass density", "setting": "308.15 K, 65000 kPa", "value": "808.94 ± 0.72", "unit": "kg/m3"}, {"measurement": "mass density", "setting": "313.15 K, 100 kPa", "value": "758.37 ± 0.3", "unit": "kg/m3"}, {"measurement": "mass density", "setting": "313.15 K, 5000 kPa", "value": "763.24 ± 0.33", "unit": "kg/m3"}, {"measurement": "mass density", "setting": "313.15 K, 10000 kPa", "value": "767.74 ± 0.36", "unit": "kg/m3"}, {"measurement": "mass density", "setting": "313.15 K, 15000 kPa", "value": "772.01 ± 0.39", "unit": "kg/m3"}, {"measurement": "mass density", "setting": "313.15 K, 20000 kPa", "value": "776.05 ± 0.42", "unit": "kg/m3"}, {"measurement": "mass density", "setting": "313.15 K, 25000 kPa", "value": "779.9 ± 0.46", "unit": "kg/m3"}, {"measurement": "mass density", "setting": "313.15 K, 30000 kPa", "value": "783.59 ± 0.49", "unit": "kg/m3"}, {"measurement": "mass density", "setting": "313.15 K, 35000 kPa", "value": "787.12 ± 0.52", "unit": "kg/m3"}, {"measurement": "mass density", "setting": "313.15 K, 40000 kPa", "value": "790.53 ± 0.56", "unit": "kg/m3"}, {"measurement": "mass density", "setting": "313.15 K, 45000 kPa", "value": "793.81 ± 0.59", "unit": "kg/m3"}, {"measurement": "mass density", "setting": "313.15 K, 50000 kPa", "value": "796.97 ± 0.63", "unit": "kg/m3"}, {"measurement": "mass density", "setting": "313.15 K, 55000 kPa", "value": "800.03 ± 0.66", "unit": "kg/m3"}, {"measurement": "mass density", "setting": "313.15 K, 60000 kPa", "value": "803 ± 0.69", "unit": "kg/m3"}, {"measurement": "mass density", "setting": "313.15 K, 65000 kPa", "value": "805.88 ± 0.72", "unit": "kg/m3"}, {"measurement": "mass density", "setting": "318.15 K, 100 kPa", "value": "754.27 ± 0.3", "unit": "kg/m3"}, {"measurement": "mass density", "setting": "318.15 K, 5000 kPa", "value": "759.27 ± 0.33", "unit": "kg/m3"}, {"measurement": "mass density", "setting": "318.15 K, 10000 kPa", "value": "763.91 ± 0.36", "unit": "kg/m3"}, {"measurement": "mass density", "setting": "318.15 K, 15000 kPa", "value": "768.28 ± 0.39", "unit": "kg/m3"}, {"measurement": "mass density", "setting": "318.15 K, 20000 kPa", "value": "772.42 ± 0.43", "unit": "kg/m3"}, {"measurement": "mass density", "setting": "318.15 K, 25000 kPa", "value": "776.38 ± 0.46", "unit": "kg/m3"}, {"measurement": "mass density", "setting": "318.15 K, 30000 kPa", "value": "780.14 ± 0.49", "unit": "kg/m3"}, {"measurement": "mass density", "setting": "318.15 K, 35000 kPa", "value": "783.75 ± 0.53", "unit": "kg/m3"}, {"measurement": "mass density", "setting": "318.15 K, 40000 kPa", "value": "787.22 ± 0.57", "unit": "kg/m3"}, {"measurement": "mass density", "setting": "318.15 K, 45000 kPa", "value": "790.57 ± 0.6", "unit": "kg/m3"}, {"measurement": "mass density", "setting": "318.15 K, 50000 kPa", "value": "793.81 ± 0.63", "unit": "kg/m3"}, {"measurement": "mass density", "setting": "318.15 K, 55000 kPa", "value": "796.91 ± 0.67", "unit": "kg/m3"}, {"measurement": "mass density", "setting": "318.15 K, 60000 kPa", "value": "799.93 ± 0.7", "unit": "kg/m3"}, {"measurement": "mass density", "setting": "318.15 K, 65000 kPa", "value": "802.85 ± 0.73", "unit": "kg/m3"}, {"measurement": "mass density", "setting": "323.15 K, 100 kPa", "value": "750.16 ± 0.3", "unit": "kg/m3"}, {"measurement": "mass density", "setting": "323.15 K, 5000 kPa", "value": "755.32 ± 0.33", "unit": "kg/m3"}, {"measurement": "mass density", "setting": "323.15 K, 10000 kPa", "value": "760.1 ± 0.36", "unit": "kg/m3"}, {"measurement": "mass density", "setting": "323.15 K, 15000 kPa", "value": "764.59 ± 0.4", "unit": "kg/m3"}, {"measurement": "mass density", "setting": "323.15 K, 20000 kPa", "value": "768.84 ± 0.43", "unit": "kg/m3"}, {"measurement": "mass density", "setting": "323.15 K, 25000 kPa", "value": "772.87 ± 0.46", "unit": "kg/m3"}, {"measurement": "mass density", "setting": "323.15 K, 30000 kPa", "value": "776.74 ± 0.5", "unit": "kg/m3"}, {"measurement": "mass density", "setting": "323.15 K, 35000 kPa", "value": "780.43 ± 0.53", "unit": "kg/m3"}, {"measurement": "mass density", "setting": "323.15 K, 40000 kPa", "value": "783.97 ± 0.57", "unit": "kg/m3"}, {"measurement": "mass density", "setting": "323.15 K, 45000 kPa", "value": "787.37 ± 0.61", "unit": "kg/m3"}, {"measurement": "mass density", "setting": "323.15 K, 50000 kPa", "value": "790.66 ± 0.64", "unit": "kg/m3"}, {"measurement": "mass density", "setting": "323.15 K, 55000 kPa", "value": "793.83 ± 0.67", "unit": "kg/m3"}, {"measurement": "mass density", "setting": "323.15 K, 60000 kPa", "value": "796.89 ± 0.71", "unit": "kg/m3"}, {"measurement": "mass density", "setting": "323.15 K, 65000 kPa", "value": "799.86 ± 0.74", "unit": "kg/m3"}, {"measurement": "mass density", "setting": "328.15 K, 100 kPa", "value": "746.03 ± 0.3", "unit": "kg/m3"}, {"measurement": "mass density", "setting": "328.15 K, 5000 kPa", "value": "751.35 ± 0.33", "unit": "kg/m3"}, {"measurement": "mass density", "setting": "328.15 K, 10000 kPa", "value": "756.23 ± 0.36", "unit": "kg/m3"}, {"measurement": "mass density", "setting": "328.15 K, 15000 kPa", "value": "760.85 ± 0.4", "unit": "kg/m3"}, {"measurement": "mass density", "setting": "328.15 K, 20000 kPa", "value": "765.22 ± 0.43", "unit": "kg/m3"}, {"measurement": "mass density", "setting": "328.15 K, 25000 kPa", "value": "769.33 ± 0.47", "unit": "kg/m3"}, {"measurement": "mass density", "setting": "328.15 K, 30000 kPa", "value": "773.28 ± 0.5", "unit": "kg/m3"}, {"measurement": "mass density", "setting": "328.15 K, 35000 kPa", "value": "777.06 ± 0.54", "unit": "kg/m3"}, {"measurement": "mass density", "setting": "328.15 K, 40000 kPa", "value": "780.66 ± 0.58", "unit": "kg/m3"}, {"measurement": "mass density", "setting": "328.15 K, 45000 kPa", "value": "784.15 ± 0.61", "unit": "kg/m3"}, {"measurement": "mass density", "setting": "328.15 K, 50000 kPa", "value": "787.49 ± 0.65", "unit": "kg/m3"}, {"measurement": "mass density", "setting": "328.15 K, 55000 kPa", "value": "790.7 ± 0.68", "unit": "kg/m3"}, {"measurement": "mass density", "setting": "328.15 K, 60000 kPa", "value": "793.83 ± 0.71", "unit": "kg/m3"}, {"measurement": "mass density", "setting": "328.15 K, 65000 kPa", "value": "796.84 ± 0.75", "unit": "kg/m3"}, {"measurement": "mass density", "setting": "333.15 K, 100 kPa", "value": "741.88 ± 0.3", "unit": "kg/m3"}, {"measurement": "mass density", "setting": "333.15 K, 5000 kPa", "value": "747.34 ± 0.33", "unit": "kg/m3"}, {"measurement": "mass density", "setting": "333.15 K, 10000 kPa", "value": "752.39 ± 0.37", "unit": "kg/m3"}, {"measurement": "mass density", "setting": "333.15 K, 15000 kPa", "value": "757.12 ± 0.4", "unit": "kg/m3"}, {"measurement": "mass density", "setting": "333.15 K, 20000 kPa", "value": "761.58 ± 0.43", "unit": "kg/m3"}, {"measurement": "mass density", "setting": "333.15 K, 25000 kPa", "value": "765.79 ± 0.47", "unit": "kg/m3"}, {"measurement": "mass density", "setting": "333.15 K, 30000 kPa", "value": "769.84 ± 0.5", "unit": "kg/m3"}, {"measurement": "mass density", "setting": "333.15 K, 35000 kPa", "value": "773.7 ± 0.54", "unit": "kg/m3"}, {"measurement": "mass density", "setting": "333.15 K, 40000 kPa", "value": "777.39 ± 0.58", "unit": "kg/m3"}, {"measurement": "mass density", "setting": "333.15 K, 45000 kPa", "value": "780.93 ± 0.62", "unit": "kg/m3"}, {"measurement": "mass density", "setting": "333.15 K, 50000 kPa", "value": "784.33 ± 0.65", "unit": "kg/m3"}, {"measurement": "mass density", "setting": "333.15 K, 55000 kPa", "value": "787.59 ± 0.69", "unit": "kg/m3"}, {"measurement": "mass density", "setting": "333.15 K, 60000 kPa", "value": "790.76 ± 0.72", "unit": "kg/m3"}, {"measurement": "mass density", "setting": "333.15 K, 65000 kPa", "value": "793.83 ± 0.75", "unit": "kg/m3"}]}]}
